According to patent US9266817B2, “Catecholamine derivatives for obesity and neurological disorders” (EMORY UNIVERSITY, priority 2009, dated 2016):

How the values were obtained:
TrkA = molecular target: T1, TrkA (Mus musculus, UniProt Q3UFB7); test: TrkA activation in mouse brain after DOPS (control); format: in vivo; details: wild-type and DBH -/- mice
T1 construct: from tissue; host or cells: mouse brain
Protocol: Mice lacking dopamine β-hydroxylase (DBH) are unable to synthesize noradrenaline (essential for mouse fetal development) or adrenaline and die in utero. Administration of DOPS, which can be converted to noradrenaline in the absence of DBH, rescued DBH −/− mice from dying. Mature DBH −/− mice can live without supplemental of DOPS. […] In wild-type control mice, DOPS induced TrkB activation in a time dependent manner with the maximal effect at 12 hours. In contrast, DOPS-triggered TrkB activation occurred at 1 hour, peaked at 5 hours, and decreased at 12 hours in DBH −/− mice. As a control, TrkA was not activated.

TrkB [1] = molecular target: T2, TrkB (Rattus norvegicus, UniProt Q63604); test: Immunoblotting of TrkB phosphorylation in primary cortical neurons treated with catecholamines; format: cell-based
T2 construct: endogenous in cells; host or cells: primary rat cortical and hippocampal neurons
Protocol: Primary cultured rat cortical neurons were prepared as follows. E17 rat pups were decapitated and cortex was extirpated, cross chopped and suspended by pipetting for separation in 5% fetal calf serum (FCS), 5% horse serum (HS) DMEM. The cell suspension was then centrifuged at 250×g for 5 min. This operation was repeated. Cells were seeded into polyethyleneimine-coated 10 cm^2 dishes and 12-well plates including coated-coverslips and incubated at 37° C. in 5% CO2/95% air. After 3 hours, the culture medium was changed to Neurobasal containing B-27 supplement (Invitrogen; Carlsbad, Calif.) and incubated for 4 days. For maintenance, half of the culture medium was changed to fresh Neurobasal/B27 in every 4 days. After 1 week, the dished cultured neurons were ready for use.
To explore whether monoamine neurotransmitters, including catecholamines (see, e.g., FIG. 1), could stimulate TrkB activation, hippocampal neurons were treated with 300 nM of catecholamines, serotonin, and melatonin for 30 min.

TrkB [2] = molecular target: T3, TrkB (Mus musculus, UniProt P15209, F616A); format: in vivo; details: L-DOPA 50 mg/kg, DOPS 100 mg/kg, 1NMPP1 50 μM
T3 construct: from tissue; host or cells: mouse brain
Protocol: The DOPS concentration was 20 mg/ml, the vitamin C concentration was 2 mg/ml, and the benserazide concentration was 5 mg/ml. The vitamin C prevents oxidation of the DOPS, and the benserazide is a peripheral inhibitor of AADC and restricts the production of NE from DOPS to the brain. The compounds were added to a tube, and 20 μl of 10 M HCl was added to each ml of DOPS solution. The appropriate amount of water was added to the tube, and then HCl was added to achieve the desired volume. For example, to make 1 mL of a DOPS solution, 20 mg DOPS, 2 mg vitamin C, and 5 mg benserazide were added to a tube, followed by 980 μL of water and 20 μL of 10 M HCl. The solution was vortexed until all DOPS was dissolved. The DOPS solution was injected subcutaneously in a volume of 50 μl/g of mouse. The appropriate amount of DOPS solution was pipetted into a clean tube, followed by the amount of 10 M NaOH required to exactly neutralize the HCl. The solution was then shaken. The amount of 10 M NaOH is the weight of the mouse in microliters. For example, for a 20 g mouse, pipet 1 ml of the DOPS solution is pipetted into a tube and 20 μL of 10 M NaOH is added. For a 30 g mouse, 1.5 mL of the DOPS solution is pipetted into a tube and 30 μl of 10 M NaOH is added. Two to four month-old TrkBF616A mice were pretreated with 1NMPP1 in drinking water (50 μM) 1 day before L-DOPA (50 mg/kg) or DOPS (100 mg/kg) intraperitoneal injection. At times of 2 hours and 5 hours after drug administration, the L-DOPA or DOPS-treated mice were sacrificed, respectively. The brain lysates were prepared and analyzed by immunoblotting against anti-phospho-TrkB Y816 and TrkA Y794 antibodies.
TrkB F616A mice were pretreated with 1NMPP1 (50 μM) before L-DOPA or DOPS administration.

TrkB [3] = format: in vivo
BDNF = test: Quantitative analysis of BDNF in mouse brain during drug treatment; format: in vivo, mice; details: during the drug treatment
TrkB [4] = molecular target: TrkB (Homo sapiens, UniProt Q16620); test: TrkB activation by catecholamines in TrkB-transfected HEK293 cells pretreated with OCT3 inhibitor; format: cell-based; design: expressed in transfected cells; host or cells: HEK293; details: 2 μM, 30 minutes pretreatment, catecholamines 15 minutes
Protocol: HEK293 cells were transfected with TrkB and pretreated with the OCT3 inhibitor decynium (2 μM) for 30 minutes, followed by stimulation with catecholamines for 15 minutes. The cell lysates were monitored by immunoblotting with anti-p-TrkB-Y-816. […] An equal amount of TrkB was expressed in each sample (FIG. 22A, lower panel).

T3 sequence (P15209 32-821 F616A): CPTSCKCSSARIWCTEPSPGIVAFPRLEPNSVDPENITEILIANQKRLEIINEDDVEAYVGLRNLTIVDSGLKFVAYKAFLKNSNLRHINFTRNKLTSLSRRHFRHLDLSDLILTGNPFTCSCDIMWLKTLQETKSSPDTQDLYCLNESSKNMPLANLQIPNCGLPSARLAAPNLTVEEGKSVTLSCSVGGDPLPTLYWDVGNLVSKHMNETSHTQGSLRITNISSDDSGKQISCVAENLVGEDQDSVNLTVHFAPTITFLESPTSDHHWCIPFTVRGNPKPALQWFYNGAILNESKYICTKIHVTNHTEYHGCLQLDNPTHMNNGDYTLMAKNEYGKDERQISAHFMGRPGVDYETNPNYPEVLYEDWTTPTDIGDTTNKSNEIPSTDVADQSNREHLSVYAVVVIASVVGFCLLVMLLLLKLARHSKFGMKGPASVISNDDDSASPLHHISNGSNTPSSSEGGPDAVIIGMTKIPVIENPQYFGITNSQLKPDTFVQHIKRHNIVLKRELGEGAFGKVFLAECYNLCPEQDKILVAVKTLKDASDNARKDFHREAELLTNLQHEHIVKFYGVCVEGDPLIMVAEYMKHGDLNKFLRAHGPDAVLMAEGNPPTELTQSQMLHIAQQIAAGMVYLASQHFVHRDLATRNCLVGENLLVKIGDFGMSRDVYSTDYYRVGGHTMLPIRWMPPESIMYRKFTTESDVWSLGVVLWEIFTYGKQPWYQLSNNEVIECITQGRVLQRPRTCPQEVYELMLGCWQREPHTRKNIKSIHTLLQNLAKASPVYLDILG
TrkB (Homo sapiens, UniProt Q16620), sequence (Q16620 32-822, species assumed): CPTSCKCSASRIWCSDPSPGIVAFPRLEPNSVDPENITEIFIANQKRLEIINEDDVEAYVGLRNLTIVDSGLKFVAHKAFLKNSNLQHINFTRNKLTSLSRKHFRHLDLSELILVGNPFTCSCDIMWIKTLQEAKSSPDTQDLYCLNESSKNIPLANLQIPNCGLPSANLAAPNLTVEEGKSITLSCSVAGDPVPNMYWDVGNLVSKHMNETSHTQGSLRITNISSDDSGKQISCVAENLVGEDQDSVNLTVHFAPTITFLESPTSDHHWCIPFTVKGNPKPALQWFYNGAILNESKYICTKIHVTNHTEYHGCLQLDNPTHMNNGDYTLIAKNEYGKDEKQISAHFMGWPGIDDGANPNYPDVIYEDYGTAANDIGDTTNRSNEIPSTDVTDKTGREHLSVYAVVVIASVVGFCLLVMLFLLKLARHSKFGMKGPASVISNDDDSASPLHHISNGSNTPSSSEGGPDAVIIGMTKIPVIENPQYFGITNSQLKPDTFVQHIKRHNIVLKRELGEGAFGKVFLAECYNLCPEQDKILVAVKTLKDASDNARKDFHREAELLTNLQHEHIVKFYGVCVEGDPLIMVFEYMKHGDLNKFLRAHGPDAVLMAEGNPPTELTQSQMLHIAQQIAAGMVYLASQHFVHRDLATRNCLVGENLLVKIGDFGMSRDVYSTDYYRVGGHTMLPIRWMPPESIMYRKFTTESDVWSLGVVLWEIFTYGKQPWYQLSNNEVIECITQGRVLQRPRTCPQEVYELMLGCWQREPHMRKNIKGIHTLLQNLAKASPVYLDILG
T2 sequence (Q63604 32-821): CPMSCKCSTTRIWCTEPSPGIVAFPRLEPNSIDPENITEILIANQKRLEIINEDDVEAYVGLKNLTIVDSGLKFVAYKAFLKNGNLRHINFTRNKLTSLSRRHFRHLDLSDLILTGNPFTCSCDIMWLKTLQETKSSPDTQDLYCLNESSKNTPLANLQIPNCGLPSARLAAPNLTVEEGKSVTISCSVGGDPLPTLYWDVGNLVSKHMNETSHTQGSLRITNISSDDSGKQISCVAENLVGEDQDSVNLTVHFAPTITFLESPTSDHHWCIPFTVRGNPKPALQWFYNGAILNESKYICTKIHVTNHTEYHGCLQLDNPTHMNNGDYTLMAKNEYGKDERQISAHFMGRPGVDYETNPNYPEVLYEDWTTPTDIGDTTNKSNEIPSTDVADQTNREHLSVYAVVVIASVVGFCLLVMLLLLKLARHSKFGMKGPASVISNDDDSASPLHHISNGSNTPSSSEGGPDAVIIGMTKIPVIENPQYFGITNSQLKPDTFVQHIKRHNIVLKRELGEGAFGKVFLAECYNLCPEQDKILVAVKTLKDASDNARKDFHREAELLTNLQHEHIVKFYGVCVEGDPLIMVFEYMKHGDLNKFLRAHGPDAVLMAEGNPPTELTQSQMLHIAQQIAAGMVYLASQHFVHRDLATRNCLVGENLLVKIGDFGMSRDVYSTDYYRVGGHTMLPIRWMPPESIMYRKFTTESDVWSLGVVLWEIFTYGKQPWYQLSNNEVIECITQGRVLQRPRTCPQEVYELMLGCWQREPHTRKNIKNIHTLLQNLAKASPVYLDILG
T1 sequence (Q3UFB7 34-799): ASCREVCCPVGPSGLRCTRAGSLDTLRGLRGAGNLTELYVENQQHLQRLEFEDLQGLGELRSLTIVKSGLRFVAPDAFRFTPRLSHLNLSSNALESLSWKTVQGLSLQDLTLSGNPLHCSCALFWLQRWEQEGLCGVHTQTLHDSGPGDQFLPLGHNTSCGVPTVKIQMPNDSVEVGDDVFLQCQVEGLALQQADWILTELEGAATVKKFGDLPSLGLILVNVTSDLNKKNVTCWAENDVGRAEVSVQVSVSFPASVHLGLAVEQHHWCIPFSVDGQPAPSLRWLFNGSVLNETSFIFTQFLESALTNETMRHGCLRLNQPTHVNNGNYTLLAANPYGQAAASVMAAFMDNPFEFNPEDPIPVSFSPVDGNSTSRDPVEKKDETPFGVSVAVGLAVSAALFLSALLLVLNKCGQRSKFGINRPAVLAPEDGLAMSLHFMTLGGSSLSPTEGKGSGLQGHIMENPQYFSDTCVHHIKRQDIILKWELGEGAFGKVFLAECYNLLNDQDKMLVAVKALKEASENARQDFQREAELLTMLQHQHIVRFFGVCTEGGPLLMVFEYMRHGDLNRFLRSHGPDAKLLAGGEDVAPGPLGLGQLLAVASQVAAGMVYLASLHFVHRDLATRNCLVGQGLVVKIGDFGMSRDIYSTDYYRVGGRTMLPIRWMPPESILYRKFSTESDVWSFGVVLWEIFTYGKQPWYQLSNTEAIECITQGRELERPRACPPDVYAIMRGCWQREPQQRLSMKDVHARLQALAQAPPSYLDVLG

Structure (SMILES)	TrkA activation in mouse brain (TrkA)	TrkB activation in primary cultured neurons (TrkB [1])	TrkB tyrosine phosphorylation/activation in mice (TrkB [2])	TrkB activation in BDNF -/- cortex (TrkB [3]; BDNF conditional knockout mice, compared to vehicle control)	Time at which TrkB activation occurred (TrkB [3]; DBH -/- mice, intraperitoneal)	Time at which TrkB activation peaked (TrkB [3]; DBH -/- mice, intraperitoneal)	TrkB activation at 12 hours (TrkB [3]; DBH -/- mice, intraperitoneal)	Time of maximal effect on TrkB activation (TrkB [3]; wild-type control mice, intraperitoneal)	BDNF in mouse brain (BDNF)	Effect of OCT3 inhibitor on TrkB activation by catecholamines (TrkB [4])
N[C@H](C(=O)O)[C@H](O)c1ccc(O)c(O)c1 [DOPS, dihydroxyphenylserine]	not activated	rapidly induced TrkB activation	provoked evident TrkB activation	strongly triggered TrkB activation	1 h	5 h	decreased	12 h	not significantly altered	
CCN1/C(=C/c2ccc3ccccc3[n+]2CC)C=Cc2ccccc21.[I-] [decynium]										failed to inhibit
